Test results taken from PMC11277489, “Novel Piperazine Derivatives of Vindoline as Anticancer Agents” (International Journal of Molecular Sciences, 2024).

Experiments:
SN12C = assay: NCI60 one-dose screen (10 μM), Renal Cancer; assay type: cell-based; conditions: Homo sapiens, 10 μM, Renal Cancer, read-out: Growth percent rate
SF-295 = assay: NCI60 one-dose screen (10 μM), CNS Cancer; assay type: cell-based; conditions: Homo sapiens; 10 μM; SF-295, CNS Cancer; read-out: Growth percent rate
NCI-H460 = assay: NCI60 one-dose screen (10 μM), Non-small Cell Lung Cancer; assay type: cell-based; conditions: Homo sapiens; 10 μM; NCI-H460, Non-small Cell Lung Cancer; read-out: Growth percent rate
NCI-H23 = assay: as above; assay type: cell-based; conditions: Homo sapiens; 10 μM; NCI-H23, Non-small Cell Lung Cancer; read-out: Growth percent rate
SNB-19 = assay: NCI60 one-dose screen (10 μM), CNS Cancer; assay type: cell-based; conditions: Homo sapiens; 10 μM; SNB-19, CNS Cancer; read-out: Growth percent rate
HOP-62 = assay: NCI60 one-dose screen (10 μM), Non-small Cell Lung Cancer; assay type: cell-based; conditions: Homo sapiens; 10 μM; HOP-62, Non-small Cell Lung Cancer; read-out: Growth percent rate
SNB-75 = assay: NCI60 one-dose screen (10 μM), CNS Cancer; assay type: cell-based, human; conditions: Homo sapiens; 10 μM; SNB-75, CNS Cancer; read-out: Growth percent rate
SK-MEL-5 = assay: NCI60 one-dose screen (10 μM), Melanoma; assay type: cell-based, human; conditions: Homo sapiens; 10 μM; SK-MEL-5, Melanoma; read-out: Growth percent rate
CCRF-CEM = assay: NCI60 one-dose screen (10 μM), Leukemia; assay type: cell-based; conditions: Homo sapiens, 10 μM, Leukemia, read-out: Growth percent rate
[1] = system: 60 human tumor cell lines (NCI60); assay: NCI60 one-dose screen (10 μM), whole panel; assay type: cell-based
MALME-3M = assay: NCI60 one-dose screen (10 μM), Melanoma; assay type: cell-based; conditions: Homo sapiens; 10 μM; MALME-3M, Melanoma; read-out: Growth percent rate
HCT-116 = assay: NCI60 one-dose screen (10 μM), Colon Cancer; assay type: cell-based; conditions: Homo sapiens; 10 μM; HCT-116, Colon Cancer; read-out: Growth percent rate
EKVX = assay: NCI60 one-dose screen (10 μM), Non-small Cell Lung Cancer; assay type: cell-based; conditions: Homo sapiens, 10 μM, Non-small Cell Lung Cancer, read-out: Growth percent rate
HCC-2998 = assay: NCI60 one-dose screen (10 μM), Colon Cancer; assay type: cell-based; conditions: Homo sapiens; 10 μM; HCC-2998, Colon Cancer; read-out: Growth percent rate
NCI-H322M = assay: NCI60 one-dose screen (10 μM), Non-small Cell Lung Cancer; assay type: cell-based; conditions: Homo sapiens, 10 μM, Non-small Cell Lung Cancer, read-out: Growth percent rate
A498 = assay: NCI60 one-dose screen (10 μM), Renal Cancer; assay type: cell-based; conditions: Homo sapiens; 10 μM; A498, Renal Cancer; read-out: Growth percent rate
NCI-H522 = assay: NCI60 one-dose screen (10 μM), Non-small Cell Lung Cancer; assay type: cell-based; conditions: Homo sapiens; 10 μM; NCI-H522, Non-small Cell Lung Cancer; read-out: Growth percent rate
A549/ATCC = assay: as above; assay type: cell-based; conditions: Homo sapiens; 10 μM; A549/ATCC, Non-small Cell Lung Cancer; read-out: Growth percent rate
RPMI-8226 = assay: NCI60 one-dose screen (10 μM), Leukemia; assay type: cell-based; conditions: Homo sapiens; 10 μM; RPMI-8226, Leukemia; read-out: Growth percent rate
MDA-MB-435 = assay: NCI60 one-dose screen (10 μM), Melanoma; assay type: cell-based; conditions: Homo sapiens; 10 μM; MDA-MB-435, Melanoma; read-out: Growth percent rate
IGROV1 = assay: NCI60 one-dose screen (10 μM), Ovarian Cancer; assay type: cell-based; conditions: Homo sapiens, IGROV-1; 10 μM; IGROV1, Ovarian Cancer; read-out: Growth percent rate
HL-60(TB) = assay: NCI60 one-dose screen (10 μM), Leukemia; assay type: cell-based; conditions: Homo sapiens; 10 μM; HL-60(TB), Leukemia; read-out: Growth percent rate
TK-10 = assay: NCI60 one-dose screen (10 μM), Renal Cancer; assay type: cell-based; conditions: Homo sapiens; 10 μM; TK-10, Renal Cancer; read-out: Growth percent rate
DU-145 = assay: NCI60 one-dose screen (10 μM), Prostate Cancer; assay type: cell-based; conditions: Homo sapiens; 10 μM; DU-145, Prostate Cancer; read-out: Growth percent rate
SK-MEL-28 = assay: NCI60 one-dose screen (10 μM), Melanoma; assay type: cell-based; conditions: Homo sapiens; 10 μM; SK-MEL-28, Melanoma; read-out: Growth percent rate
ACHN = assay: NCI60 one-dose screen (10 μM), Renal Cancer; assay type: cell-based; conditions: Homo sapiens, 10 μM, Renal Cancer, read-out: Growth percent rate
MCF7 = assay: NCI60 one-dose screen (10 μM), Breast Cancer; assay type: cell-based; conditions: Homo sapiens; 10 μM; MCF7, Breast Cancer; read-out: Growth percent rate
MOLT-4 = assay: NCI60 one-dose screen (10 μM), Leukemia; assay type: cell-based, human; conditions: Homo sapiens; 10 μM; MOLT-4, Leukemia; read-out: Growth percent rate
OVCAR-8 = assay: NCI60 one-dose screen (10 μM), Ovarian Cancer; assay type: cell-based; conditions: Homo sapiens; 10 μM; OVCAR-8, Ovarian Cancer; read-out: Growth percent rate
HT29 = assay: NCI60 one-dose screen (10 μM), Colon Cancer; assay type: cell-based; conditions: Homo sapiens, HT-29; 10 μM; HT29, Colon Cancer; read-out: Growth percent rate
OVCAR-3 = assay: NCI60 one-dose screen (10 μM), Ovarian Cancer; assay type: cell-based; conditions: Homo sapiens; 10 μM; OVCAR-3, Ovarian Cancer; read-out: Growth percent rate
UACC-257 = assay: NCI60 one-dose screen (10 μM), Melanoma; assay type: cell-based; conditions: Homo sapiens; 10 μM; UACC-257, Melanoma; read-out: Growth percent rate
KM12 = assay: NCI60 one-dose screen (10 μM), Colon Cancer; assay type: cell-based, human; conditions: Homo sapiens; 10 μM; KM12, Colon Cancer; read-out: Growth percent rate
K-562 = assay: NCI60 one-dose screen (10 μM), Leukemia; assay type: cell-based; conditions: Homo sapiens, K562; 10 μM; K-562, Leukemia; read-out: Growth percent rate
SK-MEL-2 = assay: NCI60 one-dose screen (10 μM), Melanoma; assay type: cell-based; conditions: Homo sapiens; 10 μM; SK-MEL-2, Melanoma; read-out: Growth percent rate
CAKI-1 = assay: NCI60 one-dose screen (10 μM), Renal Cancer; assay type: cell-based; conditions: Homo sapiens; 10 μM; CAKI-1, Renal Cancer; read-out: Growth percent rate
U251 = assay: NCI60 one-dose screen (10 μM), CNS Cancer; assay type: cell-based; conditions: Homo sapiens, U-251; 10 μM; U251, CNS Cancer; read-out: Growth percent rate
OVCAR-4 = assay: NCI60 one-dose screen (10 μM), Ovarian Cancer; assay type: cell-based; conditions: Homo sapiens; 10 μM; OVCAR-4, Ovarian Cancer; read-out: Growth percent rate
SW-620 = assay: NCI60 one-dose screen (10 μM), Colon Cancer; assay type: cell-based; conditions: Homo sapiens; 10 μM; SW-620, Colon Cancer; read-out: Growth percent rate
786–0 = assay: NCI60 one-dose screen (10 μM), Renal Cancer; assay type: cell-based; conditions: Homo sapiens; 10 μM; 786-0, Renal Cancer; read-out: Growth percent rate
SF-268 = assay: NCI60 one-dose screen (10 μM), CNS Cancer; assay type: cell-based; conditions: Homo sapiens; 10 μM; SF-268, CNS Cancer; read-out: Growth percent rate
M14 = assay: NCI60 one-dose screen (10 μM), Melanoma; assay type: cell-based; conditions: Homo sapiens; 10 μM; M14, Melanoma; read-out: Growth percent rate

CCC12C=CCN3CCC4(c5cc(NC(=O)CCl)c(OC)cc5N(C)C4C(O)(C(=O)OC)C1OC(C)=O)C32 (stereo not shown) [Compound 12, 10-chloroacetamidovindoline]
activity at 10 µM (SN12C): 11% | activity at 10 µM (SF-295): 52.2% | activity at 10 µM (NCI-H460): 51% | activity at 10 µM (NCI-H23): -4.42% | activity at 10 µM (SNB-19): 23.1% | activity at 10 µM (HOP-62): -57.6% | activity at 10 µM (SNB-75): -8.81% | activity at 10 µM (SK-MEL-5): -17.6% | activity at 10 µM (CCRF-CEM): 12.6% | antiproliferative effect (in words) ([1]; 10 μM one-dose, NCI60): moderate cytostatic activity | activity at 10 µM ([1]; 10 μM, mean over 60 human cancer cell lines, read-out: Growth percent rate, Mean): 18.1% | activity at 10 µM (MALME-3M): -14.1% | activity at 10 µM (HCT-116): 41.2% | activity at 10 µM (EKVX): 46.6% | activity at 10 µM (HCC-2998): 24.2% | activity at 10 µM (NCI-H322M): 58.9% | activity at 10 µM (A498): 54.6% | activity at 10 µM (NCI-H522): 8.28% | activity at 10 µM (A549/ATCC): 64% | activity at 10 µM (RPMI-8226): -24.7% | activity at 10 µM (MDA-MB-435): 39.9% | activity at 10 µM (IGROV1): 27.5% | activity at 10 µM (HL-60(TB)): 37.9% | activity at 10 µM (TK-10): 24.8% | activity at 10 µM (DU-145): 43.9% | activity at 10 µM (SK-MEL-28): -0.03% | activity at 10 µM (ACHN): 37.3% | activity at 10 µM (MCF7): 2.74% | activity at 10 µM (MOLT-4): -26.9% | activity at 10 µM (OVCAR-8): 29.6% | activity at 10 µM (HT29): 54.1% | activity at 10 µM (OVCAR-3): -14.7% | activity at 10 µM (UACC-257): -3.69% | activity at 10 µM (KM12): 41.5% | activity at 10 µM (K-562): 36.4% | activity at 10 µM (SK-MEL-2): -69.6% | activity at 10 µM (CAKI-1): 43.8% | activity at 10 µM (U251): -47.9% | activity at 10 µM (OVCAR-4): -17.1% | activity at 10 µM (SW-620): 64.5% | activity at 10 µM (786–0): 21.3% | activity at 10 µM (SF-268): -0.99% | activity at 10 µM (M14): 37%
